{
  "source": "patent US5639773A",
  "about": "“Ocular hypotensive agent” (priority 1993, dated 1997)",
  "key": {"Japanese albino rabbits [1]": {"system": "Japanese albino rabbits", "assay": "Action for lowering intraocular pressure in Japanese albino rabbits (Pneumatonograph)", "type": "in vivo, rabbit", "settings": "for Intraocular Pressure 30 minutes after instillation / Intraocular Pressure before instillation: 50 μl; for Intraocular Pressure 30 minutes after instillation / Intraocular Pressure before instillation / Intraocular Pressure difference: n=5; for Intraocular Pressure before instillation: baseline; for Intraocular Pressure difference: 30 minutes after vs before instillation", "procedure": "(§1) The action for lowering intraocular pressure in rabbits\n(§2) Male Japanese albino and pigmented rabbits having no anterior ocular abnormalities were used. One eye received 50 μl of the test drug, the other eye 50 μl of physiological saline as a control. Changes over time in ocular tension were measured. Ocular tension was measured for both eyes using a Pneumatonograph (produced by Alcon) before and 30 minutes and/or 1 hour after instillation. The test drug was (±)-1-(cyclohexyloxycarbonyloxy)ethyl 2-ethoxy-1-[[2'-(1H-tetrazol-5-yl)biphenyl-4-yl]methyl]-1H-benzimidazole-7-carboxylate (hereinafter referred to as Compound 1) as suspended in physiological saline or 0.1 w/v % polysorbate 80 to concentrations of 0.1, 0.5 and 1.0 w/v %. Also performed periodically were macroscopic observation of the anterior ocular segment and measurement of pupil diameter."}, "pigmented rabbits [2]": {"system": "pigmented rabbits", "assay": "Action for lowering intraocular pressure in pigmented rabbits (Pneumatonograph)", "type": "in vivo, rabbit", "settings": "for Intraocular Pressure 1 hour after instillation / Intraocular Pressure 30 minutes after instillation / Intraocular Pressure before instillation: 50 μl; for Intraocular Pressure before instillation: baseline; for ocular tension (result in words): suspended in 0.1 w/v % polysorbate 80", "procedure": "as §1, §2"}, "Japanese albino rabbits [3]": {"system": "Japanese albino rabbits", "settings": "rabbit, in vivo", "procedure": "as §2"}, "[4]": {"system": "anterior ocular segment of rabbits", "settings": "rabbit, in vivo", "procedure": "as §2"}, "pigmented rabbits [5]": {"system": "pigmented rabbits", "settings": "rabbit, in vivo", "procedure": "as §2"}, "[6]": {"system": "anterior ocular segment of rabbits", "settings": "rabbit, in vivo", "procedure": "as §2", "remark": "listed apart in the source"}, "[7]": {"assay": "Acute toxicity test, mice", "settings": "mouse, in vivo; single oral administration, 4-week-old Jcl:ICR mice (males, females)", "procedure": "(§3) The LD50 of compound 1 exceeded 2,000 mg/kg, as of single oral administration, in 4-week-old Jcl:ICR mice (males, females) and 5-week-old Jcl:Wistar rats (males, females)."}, "[8]": {"assay": "Acute toxicity test, rats", "settings": "rat, in vivo; single oral administration, 5-week-old Jcl:Wistar rats (males, females)", "procedure": "as §3"}, "[9]": {"settings": "0.1 w/v %, suspended in physiological saline"}, "[10]": {"settings": "0.5 w/v %, suspended in physiological saline"}, "[11]": {"settings": "0.1 w/v %, suspended in 0.1 w/v % polysorbate 80, n=6"}, "[12]": {"settings": "1.0 w/v %, suspended in 0.1 w/v % polysorbate 80, n=7"}},
  "note": "Read-outs that look alike come from different tables or passages of the source.",
  "data": [
    {"molecule": "CCOc1nc2cccc(C(=O)OC(C)OC(=O)OC3CCCCC3)c2n1Cc1ccc(-c2ccccc2-c2nnn[nH]2)cc1", "note": "(racemic) [Compound 1, (±)-1-(cyclohexyloxycarbonyloxy)ethyl 2-ethoxy-1-[[2'-(1H-tetrazol-5-yl)biphenyl-4-yl]methyl]-1H-benzimidazole-7-carboxylate]", "values": [
      {"measurement": "Intraocular Pressure 30 minutes after instillation", "setting": "Japanese albino rabbits [1]; [9]", "value": "16.3 ± 1.16", "unit": "mmHg"},
      {"measurement": "Intraocular Pressure before instillation", "setting": "Japanese albino rabbits [1]; [9]", "value": "17.8 ± 0.80", "unit": "mmHg"},
      {"measurement": "Intraocular Pressure difference", "setting": "Japanese albino rabbits [1]; 0.1 w/v %", "value": -1.5, "unit": "mmHg"},
      {"measurement": "Intraocular Pressure 30 minutes after instillation", "setting": "Japanese albino rabbits [1]; [10]", "value": "16.0 ± 0.76", "unit": "mmHg"},
      {"measurement": "Intraocular Pressure before instillation", "setting": "Japanese albino rabbits [1]; [10]", "value": "18.2 ± 0.60", "unit": "mmHg"},
      {"measurement": "Intraocular Pressure difference", "setting": "Japanese albino rabbits [1]; 0.5 w/v %", "value": -2.2, "unit": "mmHg"},
      {"measurement": "Intraocular Pressure 30 minutes after instillation", "setting": "Japanese albino rabbits [1]; 1.0 w/v %, suspended in physiological saline, *p < 0.05 vs before instillation", "value": "15.0 ± 0.47", "unit": "mmHg"},
      {"measurement": "Intraocular Pressure before instillation", "setting": "Japanese albino rabbits [1]; 1.0 w/v %, suspended in physiological saline", "value": "18.7 ± 0.44", "unit": "mmHg"},
      {"measurement": "Intraocular Pressure difference", "setting": "Japanese albino rabbits [1]; 1.0 w/v %", "value": -3.7, "unit": "mmHg"},
      {"measurement": "ocular tension (result in words)", "setting": "Japanese albino rabbits [1]; by 30 minutes after instillation, 0.1, 0.5 and 1.0 w/v %, suspended in physiological saline", "value": "fell dose-dependently"},
      {"measurement": "Intraocular Pressure 1 hour after instillation", "setting": "pigmented rabbits [2]; [11]", "value": "23.6 ± 0.33", "unit": "mmHg"},
      {"measurement": "Intraocular Pressure 30 minutes after instillation", "setting": "pigmented rabbits [2]; 0.1 w/v %, suspended in 0.1 w/v % polysorbate 80, n=6, *p < 0.05 vs before instillation", "value": "22.0 ± 0.39", "unit": "mmHg"},
      {"measurement": "Intraocular Pressure before instillation", "setting": "pigmented rabbits [2]; [11]", "value": "24.3 ± 0.25", "unit": "mmHg"},
      {"measurement": "ocular tension (result in words)", "setting": "pigmented rabbits [2]; 0.1 w/v %, 30 minutes after instillation", "value": "fell greatly"},
      {"measurement": "Intraocular Pressure 30 minutes after instillation", "setting": "pigmented rabbits [2]; [12]", "value": "21.9 ± 0.81", "unit": "mmHg"},
      {"measurement": "Intraocular Pressure 1 hour after instillation", "setting": "pigmented rabbits [2]; 1.0 w/v %, suspended in 0.1 w/v % polysorbate 80, n=7, **p < 0.001 vs before instillation", "value": "21.4 ± 0.43", "unit": "mmHg"},
      {"measurement": "Intraocular Pressure before instillation", "setting": "pigmented rabbits [2]; [12]", "value": "24.0 ± 0.29", "unit": "mmHg"},
      {"measurement": "ocular tension (result in words)", "setting": "pigmented rabbits [2]; 1.0 w/v %, one hour after instillation", "value": "fell greatly"},
      {"measurement": "change in pupil diameter", "setting": "Japanese albino rabbits [3]", "value": "Nor was there any change in pupil diameter"},
      {"measurement": "macroscopic abnormalities in the anterior ocular segment", "setting": "[4]", "value": "no macroscopic abnormalities were noted"},
      {"measurement": "change in pupil diameter", "setting": "pigmented rabbits [5]", "value": "Nor was there any change in pupil diameter"},
      {"measurement": "macroscopic abnormalities in the anterior ocular segment", "setting": "[6]", "value": "no macroscopic abnormalities were noted"},
      {"measurement": "LD50", "setting": "[7]", "value": "> 2000", "unit": "mg/kg"},
      {"measurement": "LD50", "setting": "[8]", "value": "> 2000", "unit": "mg/kg"}
    ]}
  ]
}
